Experimental data: PubChem BioAssay AID248 (DTP/NCI, 2004)
Several values for one entry are separate records, joined by “and”; a condition that tells them apart may be missing. Equal entries are not always repeated. Inconclusive results and toxic doses are left out. No stated cut-off is given here; in the data, active means T/C of 150% or more; inactive means T/C below 125%.

Test system: L1210 leukemia ip in BDF1 mice, survival T/C
Test: NCI In Vivo Anticancer Drug Screen. Data for tumor model L1210 Leukemia (intraperitoneal) in B6D2F1 (BDF1) mice
Conditions: endpoint: mean survival time, higher = longer survival
Summary of the method: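 Each compound was tested against a transplantable tumor grown in mice. The endpoint was survival, with treated animals benchmarked against vehicle controls as a simple ratio.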

[1] = dose: 100.0 mg/kg/injection, schedule: Q04DX003 (ip), vehicle: Klucel (hydroxypropylcellulose) (HPC)
[2] = dose: 200.0 mg/kg/injection, schedule: Q04DX003 (ip), vehicle: Klucel (hydroxypropylcellulose) (HPC)
[3] = dose: 400.0 mg/kg/injection, schedule: Q04DX003 (ip), vehicle: Klucel (hydroxypropylcellulose) (HPC)
[4] = dose: 100.0 mg/kg/injection, schedule: Q01DX009 (ip), vehicle: Klucel (hydroxypropylcellulose) (HPC)
[5] = dose: 200.0 mg/kg/injection, schedule: Q01DX009 (ip), vehicle: Klucel (hydroxypropylcellulose) (HPC)
[6] = dose: 100.0 mg/kg/injection, schedule: Q04DX002 (ip), vehicle: saline with Tween-80
[7] = dose: 200.0 mg/kg/injection, schedule: Q04DX002 (ip), vehicle: saline with Tween-80
[8] = dose: 400.0 mg/kg/injection, schedule: Q04DX002 (ip), vehicle: saline with Tween-80

Measured: T/C

CCC(CO)Nc1nc2cc(Cl)ccc2c2ccc(Cl)cc12 (configuration not stated)
inactive: [1] 102 % of control | [2] 100 % of control | [3] 103 % of control

Cc1ccc[n+](CCc2c[nH]c3ccccc23)c1
inactive: dose: 100.0 mg/kg/injection, schedule: Q04DX003 (ip), vehicle: saline with Tween-80 90 % of control

CCOC(=O)/C(=C/c1cccc2ccccc12)P(=O)(OCC)OCC
inactive: dose: 50.0 mg/kg/injection, schedule: Q01DX001 (ip), vehicle: saline 97 % of control | dose: 100.0 mg/kg/injection, schedule: Q01DX001 (ip), vehicle: saline 97 % of control | dose: 200.0 mg/kg/injection, schedule: Q01DX001 (ip), vehicle: saline 103 % of control | dose: 400.0 mg/kg/injection, schedule: Q01DX001 (ip), vehicle: saline 101 % of control

COc1cccc(NC(=S)C(C#N)C(=O)Nc2cccc(C(F)(F)F)c2)c1 (configuration not stated)
inactive: dose: 25.0 mg/kg/injection, schedule: Q04DX002 (ip), vehicle: gum acacia 106 % of control | dose: 50.0 mg/kg/injection, schedule: Q04DX002 (ip), vehicle: gum acacia 109 % of control | dose: 100.0 mg/kg/injection, schedule: Q04DX002 (ip), vehicle: gum acacia 98 % of control and 88 % of control

N#CCCN(CCC#N)c1ccc(C=O)cc1
inactive: [4] 97 % of control | [1] 111 % of control | [5] 103 % of control | [2] 93 % of control | dose: 400.0 mg/kg/injection, schedule: Q01DX009 (ip), vehicle: Klucel (hydroxypropylcellulose) (HPC) 96 % of control | [3] 98 % of control

O=C(Nc1cc([N+](=O)[O-])ccc1O)c1ccccc1Cl
inactive: dose: 100.0 mg/kg/injection, schedule: Q01DX009 (ip), vehicle: saline 101 % of control | dose: 200.0 mg/kg/injection, schedule: Q01DX009 (ip), vehicle: saline 97 % of control | dose: 400.0 mg/kg/injection, schedule: Q01DX009 (ip), vehicle: saline 98 % of control

Cc1ccc(/C=N\NC(=O)C(O)C(O)C(O)C(O)CO)cc1 (configuration not stated)
inactive: [6] 91 % of control | [7] 91 % of control | [8] 109 % of control

Nc1c(Br)cc(Br)c(C(=O)O)c1Br
inactive: dose: 50.0 mg/kg/injection, schedule: Q01DX009 (ip), vehicle: Klucel (hydroxypropylcellulose) (HPC) 103 % of control | [4] 101 % of control | [5] 95 % of control

CCOC(=O)C1CSCN1 (configuration not stated)
inactive: dose: 100.0 mg/kg/injection, schedule: Q04DX003 (ip), vehicle: saline 104 % of control | dose: 200.0 mg/kg/injection, schedule: Q04DX003 (ip), vehicle: saline 89 % of control

CCCN(CCC)N=Nc1ccccc1-c1nc(N)nc(N)n1
inactive: [1] 101 % of control | [2] 119 % of control | [3] 109 % of control

Cc1cnc(NC(N)=O)nc1-c1ccccc1O
inactive: dose: 100.0 mg/kg/injection, schedule: Q04DX002 (ip), vehicle: Klucel (hydroxypropylcellulose) (HPC) 95 % of control | dose: 200.0 mg/kg/injection, schedule: Q04DX002 (ip), vehicle: Klucel (hydroxypropylcellulose) (HPC) 91 % of control | dose: 400.0 mg/kg/injection, schedule: Q04DX002 (ip), vehicle: Klucel (hydroxypropylcellulose) (HPC) 87 % of control

CCCCN(CCCC)CC(O)c1cc(-c2ccc(C(F)(F)F)cc2)nc2c(Cl)cc(Cl)cc12 (configuration not stated)
inactive: [6] 100 % of control | [7] 92 % of control | [8] 95 % of control
